From patent US8883798B2, “Pyrimidine compounds inhibiting the formation of nitric oxide and prostaglandin E2, method of production thereof and use thereof” (Ustav Organicke Chemie a Biochemie Akademie Ved CR, V.V.I., priority 2011, dated 2014)

How the values were obtained:
peritoneal cells of mice = assay: Cell viability of mouse peritoneal cells (WST-1 kit); format: cell-based; conditions: substance 50 μmol·l^−1, 24 h; for Cell viability in % of the controls: Table 3A; for Cell viabilities in % of the controls: Table 3B
Description: Cell viability was determined in the standard way using a WST-1 kit (Roche). The values of the viability of the control cells were for the purposes of comparison between experiments considered as 100%. The influence of the substances on the longevity of the cells was evaluated in percentage with respect to the control values.
(§1) Experiments were performed on mice peritoneal cells C57BL/6 (Charles River, Germany—AnLabu).
(§2) NO production was induced using IFN-g (5000 pg/mL) plus LPS (100 pg/mL); evaluated (Griess reagent) after 24 h of the cell cultivation (2×10^6/mL). PGE2 was induced using LPS (10 ng/mL); evaluated (ELISA) following 6 h cultivation of cells (3×10^6/mL). Cell longevity was evaluated using WST-1 (tetrazolium salt), following 24 h cultivation of cells (1×10^6/mL). The values mentioned in the table represent the effects of the substances tested in a concentration of 50 μmol·l^−1.

[1] = test system: production of nitric oxide (NO); assay: Production of nitric oxide (NO) in cultures of mouse peritoneal cells stimulated with IFN-γ plus LPS (Griess reagent); format: cell-based, mice; conditions: substance 50 μmol·l^−1, IFN-g plus LPS, 24 h
Description: (§3) Under in vitro conditions, the effect of the pyrimidine compounds according to this invention was tested in terms of the production of nitric oxide (NO) and in terms of the production of prostaglandin E2 (PGE2) in cultures of the peritoneal cells of mice.
NO is a product of the metabolism of L-arginine, quickly changes to […], which are then measured using the Griess reagent system. Under normal conditions, the production of NO is practically zero. It only occurs after some stimulation. In these experiments, interferon-gamma (IFN-γ) and bacterial lipopolysacharide (LPS) were used as stimulators. The values of NO induced in this way fluctuated in the individual experiments in a range from 52 to 89 μmol·l^−1; for the purposes of comparison between the experiments they were considered as 100%. The production of NO after the application of the substances was expressed in percentage with respect to the control values. (The lower the value, the higher the inhibition effect of the substances on NO production.) IC50 are the concentrations of the substances reducing the production of NO by 50% with respect to the controls.
as §1, §2

[2] = test system: production of prostaglandin E2 (PGE2); assay: Production of prostaglandin E2 (PGE2) in cultures of mouse peritoneal cells stimulated with LPS (ELISA kit); format: cell-based, mice; conditions: for Production of prostaglandins in % of the controls: Table 3A, substance 50 μmol·l^−1, 6 h; for Production of prostaglandins IC50 (μmol · 1^−1) average value and range of values: Table 3B, 6 h
Description: as §3
The influence on the production of prostaglandin E2 (PGE2) in vitro caused by the activity of the pyrimidine compounds according to the submitted invention was determined in cultures of the peritoneal cells of mice using a commercial kit (R&DSystems). The concentrations of PGE2 after lipopolysacharide (LPS) stimulation reached in the individual experiments values in a range of 22 to 91 ng·ml^−1 and for the purposes of comparison between the experiments were considered as 100%. The influence of the substances on the production of PGE2 was evaluated in percentage with respect to the control values.
as §1, §2

| Compound | Cell viability in % of the controls (peritoneal cells of mice) | Production of nitric oxide in % of the controls ([1]; Table 3A) | Production of prostaglandins in % of the controls [2] | Cell viabilities in % of the controls (peritoneal cells of mice) | Production of nitric oxide in % of the controls ([1]; Table 3B) | Production of prostaglandins IC50 (μmol · 1^−1) average value and range of values [2] |
| --- | --- | --- | --- | --- | --- | --- |
| C=CCc1c(Cl)nc(N)nc1Cl [Substance 32] | 93.55 ± 19.55 % of the controls | 41.72 ± 9.27 % of the controls | 90.81 ± 5.95 % of the controls | – | – | – |
| Cc1c(Cl)nc(NC=O)nc1Cl [Substance 48] | 66.37 ± 8.13 % of the controls | 1.35 ± 0.01 % of the controls | 36.31 ± 1.99 % of the controls | – | – | – |
| CCc1c(Cl)nc(NC=O)nc1Cl [Substance 49] | 111.37 ± 10.44 % of the controls | 5.76 ± 2.48 % of the controls | 20.58 ± 2.13 % of the controls | – | – | – |
| CCCc1c(Cl)nc(NC=O)nc1Cl [Substance 50] | 98.59 ± 6.59 % of the controls | 3.95 ± 2.27 % of the controls | 14.20 ± 7.00 % of the controls | – | – | – |
| CCC(C)c1c(Cl)nc(NC=O)nc1Cl (stereo not drawn) [Substance 54] | 77.51 ± 14.73 % of the controls | 0.17 ± 0.17 % of the controls | 30.48 ± 1.79 % of the controls | – | – | – |
| O=CNc1nc(Cl)c(-c2ccccc2)c(Cl)n1 [Substance 56] | 48.49 ± 4.44 % of the controls | 0.80 ± 0.37 % of the controls | 46.40 ± 0.28 % of the controls | – | – | – |
| C=CCc1c(Cl)nc(NC=O)nc1Cl [Substance 57] | 95.37 ± 15.40 % of the controls | 1.21 ± 0.28 % of the controls | 16.42 ± 0.64 % of the controls | – | – | – |
| O=CNc1nc(Cl)c(Cc2ccccc2)c(Cl)n1 [Substance 59] | 58.75 ± 5.34 % of the controls | 0.15 ± 0.01 % of the controls | 3.84 ± 0.11 % of the controls | – | – | – |
| CCCCc1c(-c2ccccc2)nc(N)nc1-c1ccccc1 [Substance 67] | – | – | – | 93.60 ± 2.81; n = 4 % of the controls | 80.37 ± 1.36; n = 4 % of the controls | 76.75 ± 10.63; n = 4 μmol · 1^−1 |
| CCCCc1c(Cl)nc(N)nc1-c1ccccc1 [Substance 68] | – | – | – | 94.17 ± 8.43; n = 8 % of the controls | 27.78 ± 2.11; n = 4 % of the controls | 18.12 ± 0.99; n = 6 μmol · 1^−1 |
| CCCCc1c(-c2ccccc2)nc(N)nc1-c1ccc(F)cc1 [Substance 69] | – | – | – | 121.04 ± 9.53; n = 4 % of the controls | 71.24 ± 4.28; n = 4 % of the controls | 75.40 ± 21.62; n = 4 μmol · 1^−1 |
| CCCCc1c(-c2ccc(F)cc2)nc(N)nc1-c1ccc(F)cc1 [Substance 70] | – | – | – | 108.03 ± 9.80; n = 4 % of the controls | 87.03 ± 3.75; n = 4 % of the controls | 51.70 ± 13.80; n = 2 μmol · 1^−1 |
| CCCCc1c(Cl)nc(N)nc1-c1ccc(F)cc1 [Substance 71] | – | – | – | 94.59 ± 7.75; n = 4 % of the controls | 37.07 ± 6.31; n = 4 % of the controls | 26.66 ± 11.71; n = 4 μmol · 1^−1 |
| CCCCc1c(-c2ccccc2)nc(N)nc1-c1ccc(OC)cc1 [Substance 72] | – | – | – | 108.35 ± 5.66; n = 8 % of the controls | 55.45 ± 12.92; n = 6 % of the controls | 3.61 ± 0.22; n = 4 μmol · 1^−1 |
| CCCCc1c(-c2ccc(F)cc2)nc(N)nc1-c1ccc(OC)cc1 [Substance 73] | – | – | – | 130.12 ± 10.97; n = 12 % of the controls | 65.09 ± 4.11; n = 6 % of the controls | 3.92 ± 1.85; n = 4 μmol · 1^−1 |
| CCCCc1c(-c2ccc(OC)cc2)nc(N)nc1-c1ccc(OC)cc1 [Substance 74] | – | – | – | 98.75 ± 5.63; n = 12 % of the controls | 86.27 ± 4.16; n = 4 % of the controls | 38.22 ± 5.59; n = 2 μmol · 1^−1 |
| CCCCc1c(Cl)nc(N)nc1-c1ccc(OC)cc1 [Substance 75] | – | – | – | 86.35 ± 9.29; n = 8 % of the controls | 15.96 ± 4.83; n = 4 % of the controls | 4.7 ± 1.17; n = 4 μmol · 1^−1 |
| CCCCc1c(-c2ccccc2)nc(N)nc1-c1ccccn1 [Substance 76] | – | – | – | 97.97 ± 5.33; n = 8 % of the controls | 45.05 ± 3.55; n = 4 % of the controls | 42.94 ± 11.04; n = 6 μmol · 1^−1 |
| CCCCc1c(-c2ccc(OC)cc2)nc(N)nc1-c1ccccn1 [Substance 77] | – | – | – | 100.86 ± 11.78; n = 4 % of the controls | 58.20 ± 5.42; n = 6 % of the controls | 13.48 ± 1.94; n = 4 μmol · 1^−1 |
| CCCCc1c(-c2ccccc2)nc(N)nc1-c1cccnc1 [Substance 78] | – | – | – | 78.08 ± 5.20; n = 4 % of the controls | 52.81 ± 2.91; n = 4 % of the controls | 59.49 ± 9.09; n = 2 μmol · 1^−1 |
| CCCCc1c(-c2ccc(F)cc2)nc(N)nc1-c1cccnc1 [Substance 79] | – | – | – | 104.50 ± 6.37; n = 8 % of the controls | 62.58 ± 2.32; n = 6 % of the controls | 47.26 ± 5.67; n = 2 μmol · 1^−1 |
| CCCCc1c(-c2ccc(OC)cc2)nc(N)nc1-c1cccnc1 [Substance 80] | – | – | – | 103.13 ± 4.24; n = 8 % of the controls | 35.18 ± 4.39; n = 4 % of the controls | 41.84 ± 7.54; n = 2 μmol · 1^−1 |
| CCCCc1c(Cl)nc(N)nc1-c1cccnc1 [Substance 82] | – | – | – | 45.38 ± 2.92; n = 12 % of the controls | 12.07 ± 2.39; n = 8 % of the controls | 92.02 ± 8.95; n = 4 μmol · 1^−1 |
| CCCCc1c(-c2ccccc2)nc(N)nc1-c1cccs1 [Substance 86] | – | – | – | 101.59 ± 9.19; n = 8 % of the controls | 47.57 ± 8.58; n = 6 % of the controls | 27.57 ± 8.77; n = 4 μmol · 1^−1 |
| CCCCc1c(-c2ccc(F)cc2)nc(N)nc1-c1cccs1 [Substance 87] | – | – | – | 125.94 ± 4.49; n = 8 % of the controls | 48.59 ± 10.92; n = 3 % of the controls | 23.05 ± 11.33; n = 4 μmol · 1^−1 |
